Legend:
Setaria faberi (SETFA) [1] = assay: Pre-emergence biological efficacy, glasshouse, 1000 g/ha, evaluated after 13 days (100=total damage to plant; 0=no damage to plant); type: in vivo; conditions: Setaria faberi, 312 h, rate 1,000 g/ha, read-out: Percentage damage caused to weed species, pre-emergence, SETFA
Method in brief: (§1)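 Test species are sown into pots of standard soil. Plants then grow in the glasshouse under controlled conditions (24/16° C. day/night, 14 hours light, 65% humidity) and receive water twice a day.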

[2] = system: Amaranthus retroflexus (AMARE); assay: as above; type: in vivo; conditions: Amaranthus retroflexus, 312 h, rate 1,000 g/ha, read-out: Percentage damage caused to weed species, pre-emergence, AMARE
Method in brief: as §1

[3] = system: Echinochloa crus-galli (ECHCG); assay: as above; type: in vivo; conditions: Echinochloa crus-galli, 312 h, rate 1,000 g/ha, read-out: Percentage damage caused to weed species, pre-emergence, ECHCG
Method in brief: as §1

Solanum nigrum (SOLNI) [4] = assay: as above; type: in vivo; conditions: Solanum nigrum, 312 h, rate 1,000 g/ha, read-out: Percentage damage caused to weed species, pre-emergence, SOLNI
Method in brief: as §1

[5] = system: Alopecurus myosuroides (ALOMY); assay: as above; type: in vivo; conditions: Alopecurus myosuroides, 312 h, rate 1,000 g/ha, read-out: Percentage damage caused to weed species, pre-emergence, ALOMY
Method in brief: as §1

[6] = system: Ipomoea hederaceae (IPOHE); assay: as above; type: in vivo; conditions: Ipomoea, 312 h, rate 1,000 g/ha, read-out: Percentage damage caused to weed species, pre-emergence, IPOHE
Method in brief: as §1

Setaria faberi (SETFA) [7] = assay: Post-emergence biological efficacy, glasshouse, 500 or 1000 g/ha, evaluated after 13 days (100=total damage to plant; 0=no damage to plant); type: in vivo; conditions: Setaria faberi, 312 h, rate 1,000 g/ha, read-out: Percentage damage caused to weed species, post-emergence, SETFA
Method in brief: (§2)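 Plants raised from seed in pots of standard soil receive the spray after emergence. They then grow on under controlled glasshouse conditions (24/16° C. day/night, 14 hours light, 65% humidity) and are watered twice a day.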

[8] = system: Amaranthus retroflexus (AMARE); assay: as above; type: in vivo; conditions: Amaranthus retroflexus, 312 h, rate 1,000 g/ha, read-out: Percentage damage caused to weed species, post-emergence, AMARE
Method in brief: as §2

Solanum nigrum (SOLNI) [9] = assay: as above; type: in vivo; conditions: Solanum nigrum, 312 h, rate 1,000 g/ha, read-out: Percentage damage caused to weed species, post-emergence, SOLNI
Method in brief: as §2

[10] = system: Alopecurus myosuroides (ALOMY); assay: as above; type: in vivo; conditions: Alopecurus myosuroides, 312 h, rate 1,000 g/ha, read-out: Percentage damage caused to weed species, post-emergence, ALOMY
Method in brief: as §2

[11] = system: Ipomoea hederaceae (IPOHE); assay: as above; type: in vivo; conditions: Ipomoea, 312 h, rate 1,000 g/ha, read-out: Percentage damage caused to weed species, post-emergence, IPOHE
Method in brief: as §2

[12] = system: Echinochloa crusgaffi (ECHCG); assay: as above; type: in vivo; conditions: Echinochloa, 312 h, rate 1,000 g/ha, read-out: Percentage damage caused to weed species, post-emergence, ECHCG
Method in brief: as §2

Structure (SMILES) | pest or weed control at 1000 g/ha (Setaria faberi (SETFA) [1]) [%] | pest or weed control at 1000 g/ha [2] [%] | pest or weed control at 1000 g/ha [3] [%] | pest or weed control at 1000 g/ha (Solanum nigrum (SOLNI) [4]) [%] | pest or weed control at 1000 g/ha [5] [%] | pest or weed control at 1000 g/ha [6] [%] | melting point | pest or weed control at 1000 g/ha (Setaria faberi (SETFA) [7]) [%] | pest or weed control at 1000 g/ha [8] [%] | pest or weed control at 1000 g/ha (Solanum nigrum (SOLNI) [9]) [%] | pest or weed control at 1000 g/ha [10] [%] | pest or weed control at 1000 g/ha [11] [%] | pest or weed control at 1000 g/ha [12] [%]
COC(=O)c1nc(C2CC2)nc2[nH]ccc12 [Compound 1-2, 2-Cyclopropyl-4-methoxycarbonyl-7H-pyrrolo[2,3-d]pyrimidine] | 0 | 30 | 0 | 50 | 0 | 20 | 162 to 165 °C | 90 | 90 | 90 | 10 | 100 | 70
CCOCn1cc(C)c2c(C(=O)O)nc(-c3ccc(Cl)c(OC)c3F)nc21 [Compound 3-63, 4-carboxy-2-(4-chloro-2-fluoro-3-methoxyphenyl)-7-ethoxymethyl-5-methyl-7H-pyrrolo[2,3-d]pyrimidine] | 0 | 100 | 0 | 50 | 0 | 20 | 112 to 114 °C (dec.) | 10 | 80 | 80 | 0 | 60 | 10
CCOCn1cc(C)c2c(C(=O)OC)nc(-c3ccc(Cl)c(OC)c3F)nc21 [Compound 3-64, 2-(4-chloro-2-fluoro-3-methoxyphenyl)-7-ethoxymethyl-4-methoxycarbonyl-5-methyl-7H-pyrrolo[2,3-d]pyrimidine] | 0 | 0 | 0 | 0 | 0 | 0 | 107 to 108 °C | 0 | 10 | 40 | 0 | 70 | 0
COc1c(Cl)ccc(-c2nc(C(=O)O)c3c(n2)N(C)CCN3C)c1F [Compound 92-163, 4-Carboxy-2-(4-chloro-2-fluoro-3-methoxyphenyl)-5,8-dimethyl-5,6,7,8-tetrahydropteridine] | 0 | 0 | 0 | 0 | 0 | 0 | – | 10 | 0 | 10 | 10 | 10 | 10
COC(=O)c1nc(-c2ccc(Cl)c(OC)c2F)nc2c1N(C)CCN2C [Compound 92-164, 2-(4-chloro-2-fluoro-3-methoxyphenyl)-5,8-dimethyl-4-methoxycarbonyl-5,6,7,8-tetrahydropteridine] | 0 | 0 | 0 | 0 | 0 | 0 | 97 °C | 0 | 0 | 10 | 0 | 0 | 0
